From patent US9458194B2, “Compounds useful in the treatment and/or care of the skin and their cosmetic or pharmaceutical compositions” (Lubrizol Advanced Materials, Inc., priority 2013, dated 2016)
Blank lines part the entries; values can stand above or below the substance they belong to.

What was measured:
Format in all cases: cell-based
[1] = tested on: human fibulin-5 gene promoter; assay: Luminescence assay of human fibulin-5 gene promoter activation (Firefly luciferase); conditions: positive control, 10 ng/mL
Experimental: (§1) The effect of the compounds of the invention on the activity of the fibulin-5 and LOXL1 promoters was studied and compared to the levels of basal expression of the untreated cells (negative control) and with the effect of Interleukin-1β (IL-1β) in the same conditions.
(§2) Cells from an epithelial cell line doubly transfected with fibulin-5 and LOXL1 human promoters in which the luciferase gene is under the regulatory control of said promoters (4×10^4 cells/well) were seeded in a white plate and in a 96-well transparent plate, both treated with polylysine, and were incubated in Dulbecco's Modified Eagle Medium (DMEM-Glutamax™), with 10% of FBS, 1% Penicillin-Streptomycin (P/S), 1 mg/ml of Geneticin® (G418) and […] at 37° C. in at atmosphere with 5% CO2. After the incubation, the cells were incubated for 6 hours at 37° C. in at atmosphere with 5% CO2 with DMEM without serum. Then, this medium was removed and the cells were treated with different compounds at 0.1 mg/ml, 0.5 mg/ml, 1 mg/ml or 2 mg/mL in DMEM/1% FBS for 16-24 hours. As a positive control to activate the fibulin-5 and LOXL1 promoters 10 ng/ml of IL-1β were used and as a negative control untreated cells were used, just with DMEM/1% FBS. The incubations and treatments were carried out in parallel in the white plate and the transparent plate and in triplicate for each condition. After the treatment, the relative light units per second were determined (RLU/s) in the white plate by means of consecutive quantification of the activities of Firefly luciferase (fibulin-5 promoter) and Renilla luciferase (LOXL1 promoter), and the number of total cells/well in the transparent plate by means of staining with Crystal Violet (CV). To determine the Firefly and Renilla luciferase activities the Dual-Glo Luciferase Assay System kit by Promega was used. The cells were briefly lysed and the Firefly luciferase substrate was added. After incubating for 10 min at 25° C., the RLU/s were quantified by luminescence reader (Lumistar-BMG). Then the Firefly signal was extinguished and the Renilla luciferase substrate was added. After incubating for 5 min at 25° C., the RLU/s were quantified by the same luminescence reader. With regard to the determination of the total number of cells by Crystal Violet, the CV dyes the DNA of the cells and the quantity of dye taken by the cells can be measured in an absorbency reader at 630 nm (Multiskan Ascent). The color obtained is directly proportional to the total number of cells per well. The cells were briefly incubated with 0.05% CV plus 4% Formalin for 20 minutes and after several washes with Milli-Q water, the cells were left to dry for 1-2 hours and then 0.1 M of HCl was added for its immediate reading. The RLU/s of the luciferases corresponding to each promoter were normalized by the average of the total number of cells per condition. Three independent assays with 3 measurements per assay were carried out for Ac-L-Asp-L-Val-L-Lys-L-Tyr-OH at 0.1 mg/mL and 1 mg/mL. 1 assay with 3 measurements was carried out for the other compounds and concentrations.
(§3) The increase in the activity of the promoters with regard to the levels of expression of the negative control was determined.

[2] = tested on: human LOXL1 gene promoter; assay: Luminescence assay of human LOXL1 gene promoter activation (Renilla luciferase); conditions: positive control, 10 ng/mL
Experimental: as §1, §2, §3

[3] = tested on: fibulin-5; assay: Immunofluorescence of fibulin-5 protein expression in human dermal fibroblasts; conditions: for Increase in the expression of the protein fibulin-5 with regard to the negative control: 48 hours, HDFa; for Average increase of the expression of the proteins fibulin-5 and LOXL1: positive control, average for both proteins
Experimental: (§4) In this experiment the number of times that the expression of the proteins fibulin-5 and LOXL1 in human dermal fibroblasts is increased with regard to the basal levels in untreated cells (negative control) when treating the cells with 0.5 mg/ml of the product Ac-L-Asp-L-Val-L-Lys-L-Tyr-OH and it is compared with the effect of Interleukin-1β (IL-1β) at 20 ng/ml and TGF-β at 5 ng/ml (positive controls), which increase an average of 1.5 times and 2 times, respectively, the expression of these proteins, in the same conditions.
(§5) Adult human dermal fibroblasts were seeded (HDFa) (2.5×10^3 cells/well) in a 96-well transparent plate, treated with polylysine, and were incubated in complete medium 106 for 72 hours at 37° C. in an atmosphere with 5% CO2. After the incubation, the cells were treated with the different compounds in complete medium 106 for 48 hours at 37° C. in an atmosphere with 5% CO2. As positive controls of increase of the expression of the proteins fibulin-5 and LOXL1, 5 ng/ml of TGF-β and 20 ng/ml of IL-1β were used and as a negative control untreated cells were used, just with complete medium 106. The incubations and the treatments were carried out in quadruplicate for each condition. After the treatment, the levels of expression of both proteins were quantified relatively by using specific fluorescent antibodies, photographic recording by microscopy and subsequent quantification of the fluorescent signal using image processing software, the number of total cells by fluorescent staining of the nuclei (DAPI) and subsequent quantification in the same images. For the determination of the expression of the proteins fibulin-5 and LOXL1 the cells were washed with PBS 48 hours after the treatments and were fixed with paraformaldehyde. Next, duplicates of each treatment were used to mark separately the fibulin-5 and LOXL1 proteins. For each of the proteins a specific primary monoclonal antibody was used (Abcam). After the primary incubation, the cells were washed with PBS and the secondary marking was carried out with specific fluorescent polyclonal antibodies for each primary antibody. For fibulin-5 an Alexa Fluor® 594 (red) secondary antibody was used and for LOXL1 an Alexa Fluor® 488 (green) secondary antibody was used. 16 hours later all the samples were stained with DAPI (4′,6-Diamidino-2-Phenylindole), fluorescent marker for the staining of nuclei, and the photographic recording was carried out by fluorescence microscopy in a Leica microscope. 2-4 images were taken per condition and per protein and the fluorescent signals were quantified (IOD) corresponding to each protein and the nuclei by means of image analysis software. The fibulin-5 and LOXL1 signals were normalized according to the number of total nuclei for each image. 3 independent assays were carried out.

[4] = tested on: LOXL1; assay: Immunofluorescence of LOXL1 protein expression in human dermal fibroblasts; conditions: 48 hours, HDFa
Experimental: as §4
as §5, with “For the determination of the expression of the proteins fibulin-5 and LOXL1 the cells were washed with PBS 48 hours after the treatments and were fixed with paraformaldehyde. Next, duplicates of each treatment were used to mark separately the fibulin-5 and LOXL1 proteins. For each of the proteins a specific primary monoclonal antibody was used (Abcam). After the primary incubation, the cells were washed with PBS and the secondary marking was carried out with specific fluorescent polyclonal antibodies for each primary antibody. For fibulin-5 an Alexa Fluor® 594 (red) secondary antibody was used and for LOXL1 an Alexa Fluor® 488 (green) secondary antibody was used.” left out, “The fibulin-5 and LOXL1 signals were normalized according to the number of total nuclei for each image. 3 independent assays were carried out.” left out

[5] = tested on: elastin; assay: Elastin synthesis in human dermal fibroblasts (Fastin Elastin Assay); conditions: positive control, 10 ng/mL, 48 hours, vs negative control
Experimental: Stimulation of elastin synthesis induced by Ac-L-Asp-L-Val-L-Lys-L-Tyr-OH was evaluated by means of a quantitative method of staining, Fastin Elastin Assay (Tebu-Bio). Human dermal fibroblasts were trypsinized and seeded at a density of 7×10^4 cells/well in 6-well plates. After 72 hours of incubation at 37° C., 5% CO2, with a humidified atmosphere, a new medium was added with 0.01 μg/mL Ac-L-Asp-L-Val-L-Lys-L-Tyr-OH. Untreated cells were used as negative controls and cells treated with TGF-1β (Peprotech) were used as positive controls. The cells were incubated for an additional 48 hours at 37° C., 5% CO2, with humidified atmosphere. Subsequently, the elastin was solubilized and extracted, for which the cells were washed twice with PBS (Sigma) and a solution was added to uncouple the cells (Cell Dissociation Solution, Sigma). The suspension of cells was transferred to centrifuge tubes, 1 M Oxalic Acid was added provided by the kit and they were incubated at 100° C. for 1 hour. Once the elastin became soluble, a calibration curve was prepared with the elastin provided with the kit. From that point, the samples and dilutions of the calibration curve were processed following the kit instructions to isolate and stain the elastin. Lastly, the dye was extracted and the absorbency reading was carried out at a wave length of 540 nm in a TECAN GENios spectrophotometric reader.

Increase in the activity of the human promoter of the FIBULIN 5 gene with regard to the negative control [1]: 80.40% | Increase in the activity of the human promoter of the LOXL1 gene with regard to the negative control [2]: 156.26%
Substance: IL-1β: Interleukin-1β, positive control to activate the fibulin-5 and LOXL1 promoters and increase expression of the proteins [reference compound]
Increase in the expression of the protein fibulin-5 with regard to the negative control ([3]; 20 ng/mL): 42.07% | Average increase of the expression of the proteins fibulin-5 and LOXL1 ([3]; 20 ng/ml): 1.5 times | Increase in the expression of the protein LOXL1 with regard to the negative control ([4]; 20 ng/mL): 87.50%

Substance: TGF-1β: TGF-1β (Peprotech), positive control in the elastin synthesis assay [reference compound]
INCREASE IN ELASTIN SYNTHESIS [5]: 35.6%

Substance: TGF-β
Increase in the expression of the protein fibulin-5 with regard to the negative control ([3]; 5 ng/mL): 147.72% | Average increase of the expression of the proteins fibulin-5 and LOXL1 ([3]; 5 ng/ml): 2 times | Increase in the expression of the protein LOXL1 with regard to the negative control ([4]; 5 ng/mL): 45.93%
